Source: patent US20250026721A1, “COMPOUNDS AND METHODS FOR MODULATING RAS-PI3K” (Vividion Therapeutics, Inc., priority 2023, published 2025)

Molecular target: T1, PIK3CA (Homo sapiens, UniProt P42336)
T1 construct: endogenous in cells; host or cells: Jurkat cell lysate
Assay: In vitro ELISA target engagement assay for PIK3CA in Jurkat cellular lysate (competition with PIK3CA Biotin Probe)
Type: binding
Conditions: 1 hour at rt, then 500 nM PIK3CA Biotin Probe, read-out: Elisa Target Engagement Assay (TE50)
Outline: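 Competition format in Jurkat lysate: compound (serial dilutions, top 200 μM) for 1 h at rt, then 500 nM final biotinylated PIK3CA probe for 1 h at rt. Sandwich ELISA with capture antibody and Neutravidin-HRP luminescence read-out measured probe-labelled PIK3CA, giving TE50.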

T1 sequence (P42336 whole entry): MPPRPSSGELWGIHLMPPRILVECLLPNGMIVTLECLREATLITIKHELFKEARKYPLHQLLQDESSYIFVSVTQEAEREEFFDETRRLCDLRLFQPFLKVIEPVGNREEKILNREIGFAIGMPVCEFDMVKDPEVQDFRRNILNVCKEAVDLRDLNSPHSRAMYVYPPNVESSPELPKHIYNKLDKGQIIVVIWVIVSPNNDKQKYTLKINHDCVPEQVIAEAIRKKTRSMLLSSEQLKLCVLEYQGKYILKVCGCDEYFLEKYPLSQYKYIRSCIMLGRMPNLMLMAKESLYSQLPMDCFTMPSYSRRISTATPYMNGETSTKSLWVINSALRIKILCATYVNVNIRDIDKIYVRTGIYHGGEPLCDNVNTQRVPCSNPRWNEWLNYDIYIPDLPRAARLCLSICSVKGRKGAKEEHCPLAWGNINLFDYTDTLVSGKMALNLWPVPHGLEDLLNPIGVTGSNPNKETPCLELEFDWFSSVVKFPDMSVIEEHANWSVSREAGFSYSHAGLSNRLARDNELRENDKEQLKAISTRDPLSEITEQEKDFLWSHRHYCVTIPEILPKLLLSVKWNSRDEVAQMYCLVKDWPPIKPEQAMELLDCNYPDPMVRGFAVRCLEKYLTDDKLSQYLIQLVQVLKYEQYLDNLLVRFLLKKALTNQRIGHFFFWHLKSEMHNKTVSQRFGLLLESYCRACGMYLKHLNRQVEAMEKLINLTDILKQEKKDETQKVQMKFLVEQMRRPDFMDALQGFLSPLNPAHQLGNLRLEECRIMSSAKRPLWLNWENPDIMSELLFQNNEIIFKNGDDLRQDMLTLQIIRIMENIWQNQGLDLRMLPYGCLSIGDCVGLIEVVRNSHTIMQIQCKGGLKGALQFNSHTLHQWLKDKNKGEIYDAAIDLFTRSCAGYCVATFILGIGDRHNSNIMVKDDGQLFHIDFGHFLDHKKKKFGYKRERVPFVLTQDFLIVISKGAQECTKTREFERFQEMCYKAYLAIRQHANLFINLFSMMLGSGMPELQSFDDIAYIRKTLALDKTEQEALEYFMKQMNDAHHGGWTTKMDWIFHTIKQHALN
T1 sequence (P27986 whole entry partner): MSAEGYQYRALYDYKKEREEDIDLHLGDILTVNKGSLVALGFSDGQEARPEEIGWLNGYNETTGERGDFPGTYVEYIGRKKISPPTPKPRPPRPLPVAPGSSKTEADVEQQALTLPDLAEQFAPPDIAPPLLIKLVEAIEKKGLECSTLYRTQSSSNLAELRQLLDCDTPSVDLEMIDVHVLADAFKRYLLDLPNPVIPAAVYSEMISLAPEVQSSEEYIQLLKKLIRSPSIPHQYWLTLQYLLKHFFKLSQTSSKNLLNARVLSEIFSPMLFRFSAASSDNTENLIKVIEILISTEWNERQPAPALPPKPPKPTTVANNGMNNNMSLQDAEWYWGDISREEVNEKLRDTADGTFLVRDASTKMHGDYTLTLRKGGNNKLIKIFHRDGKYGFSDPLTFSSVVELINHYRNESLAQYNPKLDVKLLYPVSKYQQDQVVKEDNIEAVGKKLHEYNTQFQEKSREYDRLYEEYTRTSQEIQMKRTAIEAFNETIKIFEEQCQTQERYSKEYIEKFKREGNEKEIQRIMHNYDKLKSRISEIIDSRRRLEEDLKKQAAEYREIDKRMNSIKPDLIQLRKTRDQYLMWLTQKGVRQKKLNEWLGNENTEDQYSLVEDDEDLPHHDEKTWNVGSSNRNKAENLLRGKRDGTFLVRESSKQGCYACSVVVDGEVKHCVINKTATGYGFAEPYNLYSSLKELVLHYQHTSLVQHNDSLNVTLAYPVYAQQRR

Row | IC50 | SMILES
1 | 520 nM | N#C/C=C/CNC(=O)C1(F)CCN(S(=O)(=O)c2cnc(Cl)cc2-c2ccccc2Cl)CC1 [Compound 232, (E)-1-((6-chloro-4-(2-chlorophenyl)pyridin-3-yl)sulfonyl)-N-(3-cyanoallyl)-4-fluoropiperidine-4-carboxamide]
2 | 290 nM | O=C(NCC1=CS(=O)(=O)C1)C1(F)CCN(S(=O)(=O)c2ccc(Br)cc2-c2ccccc2Cl)CC1 [Compound 233, 1-((5-bromo-2′-chloro-[1,1′-biphenyl]-2-yl)sulfonyl)-N-((1,1-dioxido-2H-thiet-3-yl)methyl)-4-fluoropiperidine-4-carboxamide]
3 | 370 nM | COc1ccc(S(=O)(=O)N2CCC(F)(C(=O)N[C@H](C)C3=CS(=O)(=O)C3)CC2)c(-c2ccccc2Cl)c1 [Compound 235, (R)-1-((2′-chloro-5-methoxy-[1,1′-biphenyl]-2-yl)sulfonyl)-N-(1-(1,1-dioxido-2H-thiet-3-yl)ethyl)-4-fluoropiperidine-4-carboxamide]
4 | 390 nM | C[C@@H](NC(=O)C1(F)CCN(S(=O)(=O)c2ccc(C(F)(F)F)cc2-c2ccccc2Cl)CC1)C1=CS(=O)(=O)C1 [Compound 236, (R)-1-((2′-chloro-5-(trifluoromethyl)-[1,1′-biphenyl]-2-yl)sulfonyl)-N-(1-(1,1-dioxido-2H-thiet-3-yl)ethyl)-4-fluoropiperidine-4-carboxamide]
5 | 410 nM | COC[C@H](/C=C\S(C)(=O)=O)NC(=O)C1(F)CCN(S(=O)(=O)c2ccc(Br)cc2-c2ccccc2Cl)CC1 [Compound 247, (S,Z)-1-((5-bromo-2′-chloro-[1,1′-biphenyl]-2-yl)sulfonyl)-4-fluoro-N-(1-methoxy-4-(methylsulfonyl)but-3-en-2-yl)piperidine-4-carboxamide]
6 | 883 nM | C[C@H](/C=C\S(C)(=O)=O)NC(=O)C1(F)CCN(C(=O)C2CCN(C(=O)OC(C)(C)C)C=C2c2ccccc2Cl)CC1 (stereo partly drawn) [Compound 258, tert-butyl 5-(2-chlorophenyl)-4-(4-fluoro-4-(((R,Z)-4-(methylsulfonyl)but-3-en-2-yl)carbamoyl)piperidine-1-carbonyl)-3,4-dihydropyridine-1(2H)-carboxylate]
7 | 830 nM | CS(=O)(=O)C=C1CN(C(=O)C2(F)CCN(S(=O)(=O)c3ccc(Br)cc3-c3ccccc3Cl)CC2)C1 [Compound 273, (1-((5-bromo-2′-chloro-[1,1′-biphenyl]-2-yl)sulfonyl)-4-fluoropiperidin-4-yl)(3-((methylsulfonyl)methylene)azetidin-1-yl)methanone]
8 | 150 nM | C[C@H](C#CC(=O)N(C)C)NC(=O)C1(F)CCN(S(=O)(=O)c2ccc(Br)cc2-c2ccccc2Cl)CC1 [Compound 280, (R)-1-((5-bromo-2′-chloro-[1,1′-biphenyl]-2-yl)sulfonyl)-N-(5-(dimethylamino)-5-oxopent-3-yn-2-yl)-4-fluoropiperidine-4-carboxamide]
9 | 160 nM | C[C@@H](C#CC(=O)N(C)C)NC(=O)C1(F)CCN(S(=O)(=O)c2ccc(Br)cc2-c2ccccc2Cl)CC1 [Compound 281, (S)-1-((5-bromo-2′-chloro-[1,1′-biphenyl]-2-yl)sulfonyl)-N-(5-(dimethylamino)-5-oxopent-3-yn-2-yl)-4-fluoropiperidine-4-carboxamide]
10 | 200 nM | O=C(/C=C/CNC(=O)C1(F)CCN(S(=O)(=O)c2ccc(C(F)(F)F)cc2-c2ccccc2Cl)CC1)N1CC(F)(F)C1 [Compound 283, (E)-1-((2′-chloro-5-(trifluoromethyl)-[1,1′-biphenyl]-2-yl)sulfonyl)-N-(4-(3,3-difluoroazetidin-1-yl)-4-oxobut-2-en-1-yl)-4-fluoropiperidine-4-carboxamide]
11 | 640 nM | O=C(/C=C\CNC(=O)C1(F)CCN(S(=O)(=O)c2ccc(Br)cc2-c2ccccc2Cl)CC1)N1CCC1 [Compound 286, (Z)-N-(4-(azetidin-1-yl)-4-oxobut-2-en-1-yl)-1-((5-bromo-2′-chloro-[1,1′-biphenyl]-2-yl)sulfonyl)-4-fluoropiperidine-4-carboxamide]
12 | 830 nM | C[C@@H](/C=C\C(=O)N1CC(F)(F)C1)NC(=O)C1(F)CCN(S(=O)(=O)c2ccc(Br)cc2-c2ccccc2Cl)CC1 [Compound 287, (S,Z)-1-((5-bromo-2′-chloro-[1,1′-biphenyl]-2-yl)sulfonyl)-N-(5-(3,3-difluoroazetidin-1-yl)-5-oxopent-3-en-2-yl)-4-fluoropiperidine-4-carboxamide]
13 | 490 nM | COc1ccc(S(=O)(=O)N2CC[C@@](F)(C(=O)NC/C=C\C(=O)N3CC(F)(F)C3)C[C@H]2C)c(-c2ccccc2Cl)c1 [Compound 288, (2R,4S)-1-((2′-chloro-5-methoxy-[1,1′-biphenyl]-2-yl)sulfonyl)-N-((Z)-4-(3,3-difluoroazetidin-1-yl)-4-oxobut-2-en-1-yl)-4-fluoro-2-methylpiperidine-4-carboxamide]
14 | 460 nM | C[C@@H]1C[C@](F)(C(=O)NC/C=C\C(=O)N2CC(F)(F)C2)CCN1S(=O)(=O)c1cnc(C(F)(F)F)cc1-c1ccccc1Cl [Compound 289, (2R,4S)-1-((4-(2-chlorophenyl)-6-(trifluoromethyl)pyridin-3-yl)sulfonyl)-N-((Z)-4-(3,3-difluoroazetidin-1-yl)-4-oxobut-2-en-1-yl)-4-fluoro-2-methylpiperidine-4-carboxamide]
15 | 1000 nM | C[C@@H]1C[C@](F)(C(=O)NC/C=C\C(=O)N2CC(F)(F)C2)CCN1S(=O)(=O)c1ccc(C(F)(F)F)cc1-c1ccccc1Cl [Compound 290, (2R,4S)-1-((2′-chloro-5-(trifluoromethyl)-[1,1′-biphenyl]-2-yl)sulfonyl)-N-((Z)-4-(3,3-difluoroazetidin-1-yl)-4-oxobut-2-en-1-yl)-4-fluoro-2-methylpiperidine-4-carboxamide]
16 | 320 nM | C[C@@H]1C[C@](F)(C(=O)NC/C=C\C(=O)N2CC(F)(F)C2)CCN1S(=O)(=O)c1ccc(Br)cc1-c1ccccc1Cl [Compound 291, (2R,4S)-1-((5-bromo-2′-chloro-[1,1′-biphenyl]-2-yl)sulfonyl)-N-((Z)-4-(3,3-difluoroazetidin-1-yl)-4-oxobut-2-en-1-yl)-4-fluoro-2-methylpiperidine-4-carboxamide]
17 | 160 nM | C[C@@H]1C[C@](F)(C(=O)NC/C=C\C(=O)N2CC(F)(F)C2)CCN1S(=O)(=O)c1ccc(C#N)cc1-c1ccccc1Cl [Compound 292, (2R,4S)-1-((2′-chloro-5-cyano-[1,1′-biphenyl]-2-yl)sulfonyl)-N-((Z)-4-(3,3-difluoroazetidin-1-yl)-4-oxobut-2-en-1-yl)-4-fluoro-2-methylpiperidine-4-carboxamide]
18 | 350 nM | COc1ccc(C(=O)N2CCC[C@](F)(C(=O)N[C@H](C)/C=C\S(C)(=O)=O)CC2)c(-c2ccccc2Cl)c1 [Compound 295, (R)-1-(2′-chloro-5-methoxy-[1,1′-biphenyl]-2-carbonyl)-4-fluoro-N-((R,Z)-4-(methylsulfonyl)but-3-en-2-yl)azepane-4-carboxamide]
19 | 740 nM | C[C@H](/C=C\S(C)(=O)=O)NC(=O)C1(F)CCN(C(=O)[C@H]2CN(C3CC3)C[C@H]2c2ccccc2Cl)CC1 [Compound 304, 1-((3R,4R)-4-(2-chlorophenyl)-1-cyclopropylpyrrolidine-3-carbonyl)-4-fluoro-N-((R,Z)-4-(methylsulfonyl)but-3-en-2-yl)piperidine-4-carboxamide]
20 | 820 nM | C[C@H](/C=C\S(C)(=O)=O)NC(=O)[C@]1(F)CCCN(S(=O)(=O)c2ccc(C(F)(F)F)cc2-c2ccccc2Cl)CC1 [Compound 311, (S)-1-((2′-chloro-5-(trifluoromethyl)-[1,1′-biphenyl]-2-yl)sulfonyl)-4-fluoro-N-((R,Z)-4-(methylsulfonyl)but-3-en-2-yl)azepane-4-carboxamide]
21 | 530 nM | COc1ccc(S(=O)(=O)N2CCC[C@@](F)(C(=O)N[C@H](C)/C=C\S(C)(=O)=O)CC2)c(-c2ccccc2Cl)c1 [Compound 313, (S)-1-((2′-chloro-5-methoxy-[1,1′-biphenyl]-2-yl)sulfonyl)-4-fluoro-N-((R,Z)-4-(methylsulfonyl)but-3-en-2-yl)azepane-4-carboxamide]
